Data on 17 molecules can be found in US9290476B2, “Methylene linked quinolinyl modulators of RORγt” (Janssen Pharmaceutica NV, priority 2012, dated 2016).

Structures can show the parent of a compound that is named as a salt. Where two headings read alike, the source gives them in different places.

Experiment [1] addresses human RORγt LBD (Homo sapiens (Human), UniProt P51449). The experiment can be described thus: RORγt reporter assay (GAL4-RORγt LBD luciferase in HEK293T cells). The experiment is classed as cell-based. Particulars: for IC50 / RORγt reporter Assay, % inhibition @ 6 μM: HEK293T cells; for IC50: 24 hours compound treatment; for inhibition at 6 µM: HEK-293T, read-out: RORγt reporter Assay, % inhibition @ 6 μM, HEK293T cells, 6 μM. The gist of the method: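 HEK293T cells transiently co-transfected with GAL4-DBD–wild-type human RORγt LBD (pBIND) and GAL4-responsive firefly luciferase reporter (pGL4.31); renilla luciferase from pBIND normalises transfection/viability. Cells in phenol-red-free DMEM, 5% lipid-reduced FCS, treated with compound 24 h. Firefly/renilla ratio plotted against compound concentration.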

For experiment [2], the target named is human RORγt ligand binding domain (RORγt LBD) (Homo sapiens (Human), UniProt P51449). The experiment can be described thus: RORγt ThermoFluor assay (thermal shift binding affinity). To be noted: estimated from thermal shift. In short, it runs like this: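 Thermal shift used 0.065 mg/mL RORγt LBD with 60 μM 1,8-ANS in 100 mM Hepes pH 7.0, 10 mM NaCl, 2.5 mM GSH and 0.002% Tween-20, heated at 1 °C/min. Fluorescence was excited at 380–400 nm and emission read at 500 nm.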

For experiment [3], the system named is IL-17 production by CD4 T cells. As to the kind of experiment: Human Th17 assay (IL-17 production by CD4 T cells under Th17 differentiation). Type of experiment: cell-based. To be noted: human CD4+ T cells, IL-17 after 3 days, read-out: Human Th17 Assay, IC50 μM. From the text:
The human Th17 assay tests the effect of RORγt modulatory compounds on IL-17 production by CD4 T cells under conditions which favor Th17 differentiation.
Total CD4^+ T cells were isolated from the peripheral blood mononuclear cells (PBMC) of healthy donors using a CD4^+ T cell isolation kit II, following the manufacturer's instructions (Miltenyi Biotec). Cells were resuspended in a medium of RPMI-1640 supplemented with 10% fetal bovine serum, penicillin, streptomycin, glutamate, and β-mercaptoethanol and were added to 96-well plates at 1.5×10^5 per 100 μL per well. 50 μL of compound at titrated concentrations in DMSO were added into each well at final DMSO concentration at 0.2%. Cells were incubated for 1 hour, then 50 μL of Th17 cell differentiation medium was added to each well. The final concentrations of antibodies and cytokines (R&D Systems) in differentiation medium were: 3×10^6/mL anti-CD3/CD28 beads (prepared using human T cell activation/expansion kit, Miltenyi Biotec), 10 μg/mL anti-IL4, 10 μg/mL anti-IFNγ, 10 ng/mL IL1β, 10 ng/mL IL23, 50 ng/mL IL6, 3 ng/mL TGFβ and 20 U/mL IL2. Cells were cultured at 37° C. and 5% CO2 for 3 days. Supernatants were collected and the accumulated IL-17 in culture was measured by using MULTI-SPOT® Cytokine Plate following manufacture's instruction (Meso Scale Discovery). The plate was read using Sector Imager 6000, and IL-17 concentration was extrapolated from the standard curve. The IC50s were determined by GraphPad.

Chain of human RORγt LBD (P51449 258-518): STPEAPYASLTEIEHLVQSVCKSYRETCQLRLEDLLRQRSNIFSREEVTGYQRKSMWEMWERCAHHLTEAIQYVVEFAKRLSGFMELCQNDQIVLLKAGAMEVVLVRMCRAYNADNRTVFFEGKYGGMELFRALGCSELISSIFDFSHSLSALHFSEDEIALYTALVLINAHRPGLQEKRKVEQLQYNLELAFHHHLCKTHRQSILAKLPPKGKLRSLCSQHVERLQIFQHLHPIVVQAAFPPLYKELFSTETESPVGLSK
Chain of human RORγt ligand binding domain (RORγt LBD) (P51449 other isoform, or with tags, fused parts or gaps): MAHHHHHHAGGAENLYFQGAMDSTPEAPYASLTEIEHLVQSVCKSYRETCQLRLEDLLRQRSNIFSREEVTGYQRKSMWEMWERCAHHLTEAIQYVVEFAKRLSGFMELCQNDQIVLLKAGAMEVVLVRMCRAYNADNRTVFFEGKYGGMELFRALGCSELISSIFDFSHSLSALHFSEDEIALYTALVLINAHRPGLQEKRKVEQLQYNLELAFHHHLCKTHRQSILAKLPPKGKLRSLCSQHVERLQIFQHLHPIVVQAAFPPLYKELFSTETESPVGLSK

For the molecule `COc1nc2ccc(C(O)(c3cnnn3C)C3CN(C(C)=O)C3)cc2c(Cl)c1Cc1ccc(C(F)(F)F)cc1` (racemic) [Example 97A, 1-(3-((4-Chloro-2-methoxy-3-(4-(trifluoromethyl)benzyl)quinolin-6-yl)(hydroxy)(1-methyl-1H-1,2,3-triazol-5-yl)methyl)azetidin-1-yl)ethanone], in experiment [1], the IC50 came out at 0.0042 µM and the inhibition at 6 µM came to 100%. The Kd in experiment [2] is 0.0014 µM. Further, the IC50 in experiment [3] (Homo sapiens, CD4+ T, 72 h) was found to be 0.0014 µM.

`COc1ccc(C(O)(c2ccc3nc(OC)c(Cc4ccc(-n5cccn5)cc4)c(Cl)c3c2)c2cncs2)cn1` (single isomer, unassigned) [Example 20B, (3-(4-(1H-pyrazol-1-yl)benzyl)-4-chloro-2-methoxyquinolin-6-yl)(6-methoxypyridin-3-yl)(thiazol-5-yl)methanol]: in experiment [1], the IC50 turned out to be 0.047 µM and the inhibition at 6 µM was found to be 100%. The Kd in experiment [2] is 0.0014 µM. In addition, the 50% inhibitory concentration (IC50) in experiment [3] (Homo sapiens, CD4+ T, 72 h) worked out at 0.039 µM.

`COc1ccc(C(O)(c2ccc3nc(OC)c(Cc4ccc(-n5cccn5)cc4)c(Cl)c3c2)c2cncs2)cn1` (single isomer, unassigned) [Example 20C, (3-(4-(1H-pyrazol-1-yl)benzyl)-4-chloro-2-methoxyquinolin-6-yl)(6-methoxypyridin-3-yl)(thiazol-5-yl)methanol]: the “RORγt reporter Assay, % inhibition @ 6 μM” value in experiment [1] amounted to 102%. Besides, the half-maximal inhibitory concentration (IC50) was 0.06 µM in experiment [1] and 0.069 µM in experiment [3]. Also, in experiment [2], the dissociation constant Kd was 0.0053 µM.

Consider `COc1nc2c(C)cc(C(O)(c3ccc(Cl)cc3)c3cncn3C)cc2c(Cl)c1Cc1ccc(-n2cccn2)cc1` (single isomer, unassigned) [Example 28C, (3-(4-(1H-pyrazol-1-yl)benzyl)-4-chloro-2-methoxy-8-methylquinolin-6-yl)(4-chlorophenyl)(1-methyl-1H-imidazol-5-yl)methanol], for which, in experiment [1], the “RORγt reporter Assay, % inhibition @ 6 μM” value was determined as 97% and the 50% inhibitory concentration (IC50) is 0.087 µM. The Kd in experiment [2] was 0.0058 µM. For the same molecule, in experiment [3] (Homo sapiens, CD4+ T, 72 h), the IC50 stood at 0.066 µM.

With `COc1nc2c(C)cc(C(O)(c3ccc(C(F)(F)F)nc3)c3cncn3C)cc2c(Cl)c1Cc1ccc(-n2cccn2)cc1` (single isomer, unassigned) [Example 29B, (3-(4-(1H-pyrazol-1-yl)benzyl)-4-chloro-2-methoxy-8-methylquinolin-6-yl)(1-methyl-1H-imidazol-5-yl)(6-(trifluoromethyl)pyridin-3-yl)methanol], in experiment [1], inhibition was half-maximal at 0.13 µM (IC50) and the inhibition at 6 µM amounted to 102%. In addition, the Kd in experiment [2] was 0.093 µM. Also, in experiment [3], the half-maximal inhibitory concentration (IC50) was determined as 0.19 µM.

For `COc1nc2c(C)cc(C(O)(c3ccc(C(F)(F)F)nc3)c3cncn3C)cc2c(Cl)c1Cc1ccc(-n2cccn2)cc1` (single isomer, unassigned) [Example 29C, (3-(4-(1H-pyrazol-1-yl)benzyl)-4-chloro-2-methoxy-8-methylquinolin-6-yl)(1-methyl-1H-imidazol-5-yl)(6-(trifluoromethyl)pyridin-3-yl)methanol], the “RORγt reporter Assay, % inhibition @ 6 μM” value in experiment [1] amounted to 97%. Moreover, the concentration for half-maximal inhibition (IC50) was determined as 0.081 µM in experiment [1] and 0.09 µM in experiment [3]. The Kd in experiment [2] is 0.0049 µM.

`COc1nc2ccc(C(O)(c3ccc(Cl)cc3)c3cncn3C)cc2c(Cl)c1Cc1cc2ccccc2s1` (single isomer, unassigned) [Example 36C, (3-(benzo[b]thiophen-2-ylmethyl)-4-chloro-2-methoxyquinolin-6-yl)(4-chlorophenyl)(1-methyl-1H-imidazol-5-yl)methanol]: in experiment [1], the “RORγt reporter Assay, % inhibition @ 6 μM” value was determined as 101%. Further, the concentration for half-maximal inhibition (IC50) in experiment [1] came to 0.1 µM; in experiment [3] (Homo sapiens, CD4+ T, 72 h), 0.066 µM. Also, the equilibrium dissociation constant (Kd) in experiment [2] is 0.011 µM.

Take `COc1nc2ccc(C(O)(c3ccc(C(F)(F)F)nc3)c3cncn3C)cc2c(Cl)c1Cc1cc2ccccc2s1` (single isomer, unassigned) [Example 37B, (3-(benzo[b]thiophen-2-ylmethyl)-4-chloro-2-methoxyquinolin-6-yl)(1-methyl-1H-imidazol-5-yl)(6-(trifluoromethyl)pyridin-3-yl)methanol]: in experiment [1], the IC50 came to 0.16 µM and the inhibition at 6 µM was found to be 99%. Further, in experiment [2], the Kd was 0.044 µM. Further, the IC50 in experiment [3] (Homo sapiens, CD4+ T, 72 h) was determined as 0.11 µM.

With `COc1nc2ccc(C(O)(c3ccc(C)nc3C)c3cnnn3C)cc2c(Cl)c1Cc1ccc(C(F)(F)F)cc1` (single isomer, unassigned) [Example 77C, (4-chloro-2-methoxy-3-(4-(trifluoromethyl)benzyl)quinolin-6-yl)(2,6-dimethylpyridin-3-yl)(1-methyl-1H-1,2,3-triazol-5-yl)methanol], the “RORγt reporter Assay, % inhibition @ 6 μM” value in experiment [1] was 100%. Also, the IC50 in experiment [3] came out at 0.0021 µM.

For `COc1nc2ccc(C(O)(c3ccc(C)nc3C)c3cnnn3C)cc2c(C#N)c1Cc1ccc(C(F)(F)F)cc1` (single isomer, unassigned) [Example 78C, 6-((2,6-Dimethylpyridin-3-yl)(hydroxy)(1-methyl-1H-1,2,3-triazol-5-yl)methyl)-2-methoxy-3-(4-(trifluoromethyl)benzyl)quinoline-4-carbonitrile], the “RORγt reporter Assay, % inhibition @ 6 μM” value in experiment [1] is given as 99%. Besides, in experiment [3] (Homo sapiens, CD4+ T, 72 h), the IC50 was 0.004 µM.

In the case of `COc1nc2ccc(C(O)(c3cnnn3C)c3cnc(C)n3C)cc2c(Cl)c1Cc1ccc(C(F)(F)F)cc1` (single isomer, unassigned) [Example 80B, (4-chloro-2-methoxy-3-(4-(trifluoromethyl)benzyl)quinolin-6-yl)(1,2-dimethyl-1H-imidazol-5-yl)(1-methyl-1H-1,2,3-triazol-5-yl)methanol], the inhibition at 6 µM in experiment [1] amounted to 92%. Moreover, in experiment [3], the concentration for half-maximal inhibition (IC50) was found to be 0.05 µM.

As to `COc1nc2ccc(C(O)(c3cnnn3C)c3cnc(C)n3C)cc2c(Cl)c1Cc1ccc(C(F)(F)F)cc1` (single isomer, unassigned) [Example 80C, (4-chloro-2-methoxy-3-(4-(trifluoromethyl)benzyl)quinolin-6-yl)(1,2-dimethyl-1H-imidazol-5-yl)(1-methyl-1H-1,2,3-triazol-5-yl)methanol], the “RORγt reporter Assay, % inhibition @ 6 μM” value in experiment [1] came out at 93%. In experiment [3], the concentration for half-maximal inhibition (IC50) was 0.002 µM.

For `CCc1nc2ccc(C(O)(c3cnnn3C)C3CN(S(C)(=O)=O)C3)cc2c(Cl)c1Cc1ccc(C(F)(F)F)cc1` (single isomer, unassigned) [Example 91B, (4-Chloro-2-ethyl-3-(4-(trifluoromethyl)benzyl)quinolin-6-yl)(1-methyl-1H-1,2,3-triazol-5-yl)(1-(methylsulfonyl)azetidin-3-yl)methanol], the inhibition at 6 µM in experiment [1] turned out to be 97%. In experiment [3], the concentration for half-maximal inhibition (IC50) came out at 0.022 µM.

As to `CCc1nc2ccc(C(O)(c3cnnn3C)C3CN(S(C)(=O)=O)C3)cc2c(Cl)c1Cc1ccc(C(F)(F)F)cc1` (single isomer, unassigned) [Example 91C, (4-Chloro-2-ethyl-3-(4-(trifluoromethyl)benzyl)quinolin-6-yl)(1-methyl-1H-1,2,3-triazol-5-yl)(1-(methylsulfonyl)azetidin-3-yl)methanol], in experiment [1], the “RORγt reporter Assay, % inhibition @ 6 μM” value was 102%. Also, the 50% inhibitory concentration (IC50) in experiment [3] was 0.0025 µM.

For `Cn1cncc1C(O)(c1ccc2nc(Cl)c(Cc3ccc(-n4cccn4)cc3)c(Cl)c2c1)c1cncs1` (stereo not shown) [Example 15, (3-(4-(1H-Pyrazol-1-yl)benzyl)-2,4-dichloroquinolin-6-yl)(1-methyl-1H-imidazol-5-yl)(thiazol-5-yl)methanol.TFA], the half-maximal inhibitory concentration (IC50) in experiment [1] was found to be 0.013 µM; in experiment [3] (Homo sapiens, CD4+ T, 72 h), 0.024 µM. Also, in experiment [1], the inhibition at 6 µM turned out to be 104%.

With `Cc1cc(C(O)(c2ccc(Cl)cc2)c2cncn2C)cc2c(Cl)c(Cc3ccc(-n4cccn4)cc3)c(Cl)nc12` (stereo not shown) [Example 27, (3-(4-(1H-Pyrazol-1-yl)benzyl)-2,4-dichloro-8-methylquinolin-6-yl)(4-chlorophenyl)(1-methyl-1H-imidazol-5-yl)methanol.TFA salt], in experiment [1], the “RORγt reporter Assay, % inhibition @ 6 μM” value stood at 97% and the IC50 was 0.29 µM. In addition, the IC50 in experiment [3] stood at 0.3 µM.

Regarding `Cn1cncc1C(O)(c1ccc(C(F)(F)F)nc1)c1ccc2nc(C#N)c(Cc3ccc(-n4cccn4)cc3)c(C#N)c2c1` (stereo not shown) [Example 72B, 3-(4-(1H-Pyrazol-1-yl)benzyl)-6-(hydroxy(1-methyl-1H-imidazol-5-yl)(6-(trifluoromethyl)pyridin-3-yl)methyl)quinoline-2,4-dicarbonitrile], the inhibition at 6 µM in experiment [1] was determined as 99%. For the same molecule, the half-maximal inhibitory concentration (IC50) in experiment [3] (Homo sapiens, CD4+ T, 72 h) is 0.025 µM.
